Data published in ChEMBL document CHEMBL1132652, “Design and synthesis of isoxazoline derivatives as factor Xa inhibitors. 2” (J Med Chem, 1999).

Experiments:
Serine protease 1 = Serine protease 1 (Homo sapiens, UniProt P07477); assay: Binding affinity towards trypsin obtained from human purified enzymes
Coagulation factor X = Coagulation factor X (Homo sapiens, UniProt P00742); assay: Binding affinity towards human purified Coagulation factor Xa (FXa)
Prothrombin = Prothrombin (Homo sapiens, UniProt P00734); assay: Binding affinity towards thrombin obtained from human purified enzymes
Oryctolagus cuniculus = species: Oryctolagus cuniculus; assay: Inhibitory activity against thrombus formation in rabbit using Arterio-Venous Shunt Thrombosis Model; type: functional
[1] = The plasma half life (5 mg/kg) was measured in rabbits; type: ADME, organism-based, Oryctolagus cuniculus; settings: rabbit
[2] = In vivo clearance (5 mg/kg) was determined in rabbits; type: ADME, organism-based, Oryctolagus cuniculus; settings: rabbit

Chain of Coagulation factor X (P00742 41-179 limits assumed): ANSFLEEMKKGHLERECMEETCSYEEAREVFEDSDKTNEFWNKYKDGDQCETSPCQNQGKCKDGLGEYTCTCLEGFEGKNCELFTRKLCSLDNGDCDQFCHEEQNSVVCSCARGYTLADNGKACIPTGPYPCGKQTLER
Chain of Coagulation factor X (P00742 235-488 limits assumed): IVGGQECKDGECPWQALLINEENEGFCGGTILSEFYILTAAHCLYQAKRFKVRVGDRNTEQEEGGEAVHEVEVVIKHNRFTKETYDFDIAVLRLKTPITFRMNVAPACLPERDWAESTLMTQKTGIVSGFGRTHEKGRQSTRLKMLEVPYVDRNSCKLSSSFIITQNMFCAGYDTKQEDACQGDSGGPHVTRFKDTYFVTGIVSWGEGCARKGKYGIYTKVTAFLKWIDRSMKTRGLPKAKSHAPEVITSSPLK
Chain of Serine protease 1 (P07477 whole entry): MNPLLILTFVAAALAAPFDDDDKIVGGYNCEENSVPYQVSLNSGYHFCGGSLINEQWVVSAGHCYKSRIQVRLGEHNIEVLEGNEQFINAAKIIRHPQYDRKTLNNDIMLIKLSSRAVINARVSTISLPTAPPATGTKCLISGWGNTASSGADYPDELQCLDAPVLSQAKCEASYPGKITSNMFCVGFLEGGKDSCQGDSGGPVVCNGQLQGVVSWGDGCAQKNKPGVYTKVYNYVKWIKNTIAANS

Structure (SMILES)	Ki (Serine protease 1)	Ki (Coagulation factor X)	Ki (Prothrombin)	ID50 (Oryctolagus cuniculus)	half-life [1]	clearance [2]
CCSCC1(C(=O)Nc2ncc(-c3ccccc3S(N)(=O)=O)cn2)CC(c2cccc(C(=N)N)c2)=NO1 (stereo not given)	350 nM	2.4 nM	10000 nM			
CCOCC1(C(=O)Nc2ccc(-c3ccccc3S(N)(=O)=O)cn2)CC(c2cccc(C(=N)N)c2)=NO1 (stereo not given) [listing 1 of 2 here]	25 nM	0.8 nM	5000 nM	0.8 µM/h/kg	36 min	21.7 mL/min/kg
COCC1(C(=O)Nc2ncc(-c3ccccc3S(N)(=O)=O)cn2)CC(c2cccc(C(=N)N)c2)=NO1 (stereo not given)	390 nM	9.9 nM	16000 nM			
N=C(N)c1cccc(C2=NOC(Cn3cnnn3)(C(=O)Nc3ccc(-c4ccccc4S(N)(=O)=O)cn3)C2)c1 (stereo not given) [listing 1 of 2 here]	18 nM	0.11 nM	900 nM	0.032 µM/h/kg	42 min	8.33 mL/min/kg
COC(=O)CC1(C(=O)Nc2ccc(-c3ccccc3S(N)(=O)=O)cn2)CC(c2cccc(C(=N)N)c2)=NO1 (stereo not given)	52 nM	2.3 nM	3900 nM			
N=C(N)c1cccc(C2=NOC(Cn3cncn3)(C(=O)Nc3ccc(-c4ccccc4S(N)(=O)=O)cc3)C2)c1 (stereo not given)	47 nM	1.7 nM	3400 nM			
N=C(N)c1cccc(C2=NOC(Cn3cnnn3)(C(=O)Nc3ccc(-c4ccccc4S(N)(=O)=O)cc3F)C2)c1 (stereo not given)	110 nM	0.44 nM	500 nM			
COCC1(C(=O)Nc2ccc(-c3ccccc3S(N)(=O)=O)cn2)CC(c2cccc(C(=N)N)c2)=NO1 (stereo not given)	45 nM	2.5 nM	7400 nM			
N=C(N)c1cccc(C2=NOC(Cn3cnnn3)(C(=O)Nc3ccc(-c4ccccc4S(N)(=O)=O)cc3)C2)c1 (stereo not given) [listing 1 of 2 here]	45 nM	0.52 nM	400 nM	0.035 µM/h/kg	36 min	5 mL/min/kg
CCS(=O)(=O)CC1(C(=O)Nc2ccc(-c3ccccc3S(N)(=O)=O)cc2)CC(c2cccc(C(=N)N)c2)=NO1 (stereo not given)	72 nM	3.5 nM	2000 nM			
CCOCC1(C(=O)Nc2ccc(-c3ccccc3S(N)(=O)=O)cn2)CC(c2cccc(C(=N)N)c2)=NO1 (stereo not given) [listing 2 of 2 here]	40 nM	2.8 nM	8400 nM			
N=C(N)c1cccc(C2=NOC(Cn3cnnn3)(C(=O)Nc3ncc(-c4ccccc4S(N)(=O)=O)cn3)C2)c1 (stereo not given) [listing 1 of 2 here]	500 nM	1.3 nM	7700 nM			
CCOCC1(C(=O)Nc2ccc(-c3ccccc3S(N)(=O)=O)cc2)CC(c2cccc(C(=N)N)c2)=NO1 (stereo not given) [listing 1 of 2 here]	86 nM	3.3 nM	2100 nM	0.74 µM/h/kg	37.8 min	8.17 mL/min/kg
CCOCC1(C(=O)Nc2ccc(-c3ccccc3S(N)(=O)=O)cc2)CC(c2cccc(C(=N)N)c2)=NO1 (stereo not given) [listing 2 of 2 here]	70 nM	3.5 nM	3100 nM			
CCS(=O)(=O)CC1(C(=O)Nc2ccc(-c3ccccc3S(N)(=O)=O)cn2)CC(c2cccc(C(=N)N)c2)=NO1 (stereo not given)	72 nM	1.7 nM	5800 nM			
CC(C)OCC1(C(=O)Nc2ccc(-c3ccccc3S(N)(=O)=O)cc2)CC(c2cccc(C(=N)N)c2)=NO1 (stereo not given)	120 nM	4.3 nM	4500 nM			
N=C(N)c1cccc(C2=NOC(Cn3cnnn3)(C(=O)Nc3ccc(-c4ccccc4S(N)(=O)=O)cc3Cl)C2)c1.O=C(O)C(F)(F)F (stereo not given)	47 nM	0.15 nM	300 nM	0.25 µM/h/kg	48 min	13.3 mL/min/kg
CC(C)COCC1(C(=O)Nc2ccc(-c3ccccc3S(N)(=O)=O)cc2)CC(c2cccc(C(=N)N)c2)=NO1 (stereo not given)	140 nM	37 nM	3900 nM			
N=C(N)c1cccc(C2=NOC(Cn3cnnn3)(C(=O)Nc3ccc(-c4ccccc4S(N)(=O)=O)cc3)C2)c1 (stereo not given) [listing 2 of 2 here]	91 nM	1.6 nM	900 nM			
Cc1cc(-c2ccccc2S(N)(=O)=O)ccc1NC(=O)C1(Cn2cnnn2)CC(c2cccc(C(=N)N)c2)=NO1 (stereo not given)	200 nM	1 nM	300 nM			

Structure (SMILES)	Ki (Serine protease 1)	Ki (Coagulation factor X)	Ki (Prothrombin)	ID50 (Oryctolagus cuniculus)	half-life [1]	clearance [2]
CC1(C(=O)Nc2ccc(-c3ccccc3S(N)(=O)=O)cn2)CC(c2cccc(C(=N)N)c2)=NO1 (stereo not given)	41 nM	4.1 nM	8100 nM			
CCSCC1(C(=O)Nc2ccc(-c3ccccc3S(N)(=O)=O)cn2)CC(c2cccc(C(=N)N)c2)=NO1 (stereo not given)	54 nM	2.2 nM	2800 nM			
CCCOCC1(C(=O)Nc2ccc(-c3ccccc3S(N)(=O)=O)cc2)CC(c2cccc(C(=N)N)c2)=NO1 (stereo not given)	90 nM	2.9 nM	4300 nM			
COC(=O)CC1(C(=O)Nc2ncc(-c3ccccc3S(N)(=O)=O)cn2)CC(c2cccc(C(=N)N)c2)=NO1 (stereo not given)	330 nM	4.3 nM	14000 nM			
CNS(=O)(=O)c1ccccc1-c1ccc(NC(=O)C2(Cn3cnnn3)CC(c3cccc(C(=N)N)c3)=NO2)cc1 (stereo not given)	49 nM	0.92 nM	100 nM			
N=C(N)c1cccc(C2=NOC(CC(=O)O)(C(=O)Nc3ccc(-c4ccccc4S(N)(=O)=O)cc3)C2)c1.O=C(O)C(F)(F)F (stereo not given)	630 nM	20 nM	> 21000 nM	>4.8 µM/h/kg	94.2 min	4.67 mL/min/kg
N=C(N)c1cccc(C2=NOC(Cn3cnnn3)(C(=O)Nc3ccc(-c4ccccc4S(N)(=O)=O)cn3)C2)c1 (stereo not given) [listing 2 of 2 here]	31 nM	0.17 nM	1100 nM			
CCCCOCC1(C(=O)Nc2ccc(-c3ccccc3S(N)(=O)=O)cc2)CC(c2cccc(C(=N)N)c2)=NO1 (stereo not given)	113 nM	13 nM	4000 nM			
N=C(N)c1cccc(C2=NOC(Cn3ncnn3)(C(=O)Nc3ccc(-c4ccccc4S(N)(=O)=O)cc3)C2)c1 (stereo not given)	91 nM	1.6 nM	2900 nM			
CCCNS(=O)(=O)c1ccccc1-c1ccc(NC(=O)C2(Cn3cnnn3)CC(c3cccc(C(=N)N)c3)=NO2)cc1 (stereo not given)	49 nM	2.1 nM	70 nM			
COCC1(C(=O)Nc2ccc(-c3ccccc3S(N)(=O)=O)cc2)CC(c2cccc(C(=N)N)c2)=NO1 (stereo not given)	70 nM	3.4 nM	2400 nM			
CC1(C(=O)Nc2ccc(-c3ccccc3S(N)(=O)=O)cc2)CC(c2cccc(C(=N)N)c2)=NO1 (stereo not given)	120 nM	11 nM	5800 nM			
N=C(N)c1cccc(C2=NOC(Cc3ccccc3)(C(=O)Nc3ccc(-c4ccccc4S(N)(=O)=O)cc3)C2)c1 (stereo not given)	80 nM	8.5 nM	1300 nM			
CCOCC1(C(=O)Nc2ncc(-c3ccccc3S(N)(=O)=O)cn2)CC(c2cccc(C(=N)N)c2)=NO1 (stereo not given)	330 nM	6.8 nM	> 21000 nM			
N=C(N)c1cccc(C2=NOC(C(=O)Nc3ccc(-c4ccccc4S(N)(=O)=O)cc3)C2)c1 (stereo not given)	83 nM	7.2 nM	3900 nM			
N=C(N)c1cccc(C2=NOC(C(=O)Nc3ccc(-c4ccccc4S(N)(=O)=O)cc3)(C(F)(F)F)C2)c1 (stereo not given)	310 nM	23 nM	6100 nM			
COC(=O)CC1(C(=O)Nc2ccc(-c3ccccc3S(N)(=O)=O)cc2)CC(c2cccc(C(=N)N)c2)=NO1.O=C(O)C(F)(F)F (stereo not given)	110 nM		3100 nM	0.6 µM/h/kg	55.2 min	3.5 mL/min/kg
N=C(N)c1cccc(C2=NOC(Cn3cnnn3)(C(=O)Nc3ncc(-c4ccccc4S(N)(=O)=O)cn3)C2)c1 (stereo not given) [listing 2 of 2 here]	120 nM	0.32 nM	3000 nM			
COCCC1(C(=O)Nc2ccc(-c3ccccc3S(N)(=O)=O)cc2)CC(c2cccc(C(=N)N)c2)=NO1 (stereo not given)	98 nM	5 nM	4400 nM			
CCS(=O)(=O)CC1(C(=O)Nc2ncc(-c3ccccc3S(N)(=O)=O)cn2)CC(c2cccc(C(=N)N)c2)=NO1 (stereo not given)	290 nM	5.3 nM	13000 nM			
